System: HEK293T-Gα16gust44 cells transfected with empty vector (mock)
Experiment: Calcium imaging assay (FLIPR), empty vector control (mock)
Format: cell-based
Protocol: This set of bile acids was chosen because of their commercial availability in high purities, their diversity within the class of bile acids and their previous detection and quantitation in human blood. Stock solutions were prepared in DMSO.
As basal growth medium for the HEK293T-Gα16gust44 cell line[17],[59] served Dulbecco’s modified eagle medium (DMEM) (Thermo Fisher Scientific, Darmstadt, Germany) supplemented with 10 % fetal bovine serum (Sigma-Aldrich, Steinheim, Germany), 2 mM L-glutamine (Sigma-Aldrich, Steinheim, Germany), 100 units/ml penicillin (Sigma Aldrich, Steinheim, Germany) and 100 µg/ml streptomycin (Sigma Aldrich, Steinheim, Germany). Growth conditions were 37 °C, 5 % CO2 and saturated air-humidity[60].
HEK293T-Gα16gust44 cells were seeded on poly-D-lysine (10 µg/ml) coated 96-well plates to reach a confluence of 40-60 % the next day. For transient transfection 150 ng of plasmid DNA containing the receptor of interest and 0.3 µl lipofectamine 2000 (Thermo Fisher Scientific, Darmstadt, Germany) per well were used and transfection took place according to the manual of lipofectamine 2000. […] The empty vector DNA (mock) was transfected as negative control[14],[41].
Cells were loaded using the calcium-sensitive fluorescent dye Fluo-4-AM (Abcam, Cambridge, Great Britain) in the presence of 2.5 mM probenecid (Sigma-Aldrich, Steinheim, Germany) the day after transfection[13],[41]. 1 h after loading, cells were washed with C1 buffer using a BioTek Cell Washer, incubated in the dark for half an hour and washed again. For automated agonist application and measurement of fluorescence changes, a FLIPR^TETRA device (Molecular Devices, San José, United States) was used. Viability of cells was tested by application of 100 nM Somatostatin 14 (Bachem, Bubendorf, Switzerland)[42].
Measured data were negative control corrected by subtracting the signal of the mock-transfected cells and exported to Microsoft Excel using the FLIPR software ScreenWorks 4.2. In Microsoft Excel software, standardization of maximum fluorescence intensities to the basal fluorescence and normalization to the buffer-only control was done to calculate the relative fluorescence changes (ΔF/F).
Initial screening experiments performed in duplicate wells were confirmed by at least one replication and representative traces were selected for display. All dose-response relationships were determined by three independent experiments (biological replicates) performed in duplicates (technical replicates). Threshold concentrations, defined as lowest substance concentrations leading to statistically significant elevated fluorescence changes in receptor-transfected cells compared with empty vector-transfected cells, were determined using SigmaPlot with Student’s t-test to evaluate statistical significance (p < 0.01).

## C[C@H](CCC(=O)O)[C@H]1CC[C@H]2[C@@H]3[C@H](O)C[C@@H]4C[C@H](O)CC[C@]4(C)[C@H]3C[C@H](O)[C@]12C [Cholic Acid, cholic acid]
Conc. 0,01 mM, Mock (sheet TAS2R39)
  Δ F/F: -0.01821
Conc. 0,1 mM, Mock (sheet TAS2R39)
  Δ F/F: -0.02224
Conc. 0,03 mM, Mock (sheet TAS2R39)
  Δ F/F: -0.01697
Conc. 0,3 mM, Mock (sheet TAS2R39)
  Δ F/F: -0.04388
Conc. 0,001 mM, Mock (sheet TAS2R39)
  Δ F/F: -0.01201
Conc. 1 mM, Mock (sheet TAS2R39)
  Δ F/F: -0.08707
Conc. 0,003 mM, Mock (sheet TAS2R39)
  Δ F/F: -0.01404
Mock (sheet Tas2r123), conc. 0,01 mM
  Δ F/F: -0.0003322
Mock (sheet Tas2r123), conc. 0,1 mM
  Δ F/F: -0.0005726
Mock (sheet Tas2r123), conc. 0,03 mM
  Δ F/F: -0.0005964
Mock (sheet Tas2r123), conc. 0,3 mM
  Δ F/F: 0.0008115
Mock (sheet Tas2r123), conc. 0,0003 mM
  Δ F/F: -0.001363
Mock (sheet Tas2r123), conc. 0,001 mM
  Δ F/F: -0.001187
Mock (sheet Tas2r123), conc. 0,003 mM
  Δ F/F: -0.0002243
Mock (sheet Tas2r126), conc. 0,01 mM
  Δ F/F: -0.02005
Mock (sheet Tas2r126), conc. 0,1 mM
  Δ F/F: -0.02997
Mock (sheet Tas2r126), conc. 0,03 mM
  Δ F/F: -0.01829
Mock (sheet Tas2r126), conc. 0,3 mM
  Δ F/F: -0.04711
Mock (sheet Tas2r126), conc. 0,001 mM
  Δ F/F: -0.01156
Mock (sheet Tas2r126), conc. 1 mM
  Δ F/F: -0.07412
Mock (sheet Tas2r126), conc. 0,003 mM
  Δ F/F: -0.01876
Mock (sheet Tas2r144), conc. 0,01 mM
  Δ F/F: 0.0002394
Mock (sheet Tas2r144), conc. 0,1 mM
  Δ F/F: -0.0009617
Mock (sheet Tas2r144), conc. 0,03 mM
  Δ F/F: 0.0001706
Mock (sheet Tas2r144), conc. 0,3 mM
  Δ F/F: 2.3167e-5
Mock (sheet Tas2r144), conc. 0,003 mM
  Δ F/F: -0.001282
Mock, sheet TAS2R4, conc. 0,01 mM
  Δ F/F: -0.001675
Mock, sheet TAS2R4, conc. 0,1 mM
  Δ F/F: 0.0001605
Mock, sheet TAS2R4, conc. 0,03 mM
  Δ F/F: -0.001772
Mock, sheet TAS2R4, conc. 0,3 mM
  Δ F/F: 0.0004382
Mock, sheet TAS2R4, conc. 0,0003 mM
  Δ F/F: 0.001019
Mock, sheet TAS2R4, conc. 0,001 mM
  Δ F/F: -0.0001368
Mock, sheet TAS2R4, conc. 0,003 mM
  Δ F/F: -0.001078
Mock, sheet TAS2R14, conc. 0,01 mM
  Δ F/F: -0.01829
Mock, sheet TAS2R14, conc. 0,1 mM
  Δ F/F: -0.02451
Mock, sheet TAS2R14, conc. 0,03 mM
  Δ F/F: -0.01803
Mock, sheet TAS2R14, conc. 0,3 mM
  Δ F/F: -0.04097
Mock, sheet TAS2R14, conc. 0,001 mM
  Δ F/F: -0.0206
Mock, sheet TAS2R14, conc. 1 mM
  Δ F/F: -0.06455
Mock, sheet TAS2R14, conc. 0,003 mM
  Δ F/F: -0.02081
Mock, sheet Tas2r105, conc. 0,01 mM
  Δ F/F: -0.01514
Mock, sheet Tas2r105, conc. 0,1 mM
  Δ F/F: -0.02586
Mock, sheet Tas2r105, conc. 0,03 mM
  Δ F/F: -0.01353
Mock, sheet Tas2r105, conc. 0,3 mM
  Δ F/F: -0.04947
Mock, sheet Tas2r105, conc. 0,001 mM
  Δ F/F: -0.01259
Mock, sheet Tas2r105, conc. 1 mM
  Δ F/F: -0.08731
Mock, sheet Tas2r105, conc. 0,003 mM
  Δ F/F: -0.01645
Mock, sheet Tas2r108, conc. 0,01 mM
  Δ F/F: -0.0241
Mock, sheet Tas2r108, conc. 0,1 mM
  Δ F/F: -0.03289
Mock, sheet Tas2r108, conc. 0,03 mM
  Δ F/F: -0.0233
Mock, sheet Tas2r108, conc. 0,3 mM
  Δ F/F: -0.05172
Mock, sheet Tas2r108, conc. 0,001 mM
  Δ F/F: -0.01866
Mock, sheet Tas2r108, conc. 1 mM
  Δ F/F: -0.07524
Mock, sheet Tas2r108, conc. 0,003 mM
  Δ F/F: -0.01483
Mock, sheet Tas2r117, conc. 0,01 mM
  Δ F/F: -0.001513
Mock, sheet Tas2r117, conc. 0,1 mM
  Δ F/F: -0.0006881
Mock, sheet Tas2r117, conc. 0,03 mM
  Δ F/F: -0.0006551
Mock, sheet Tas2r117, conc. 0,3 mM
  Δ F/F: -0.001135
Mock, sheet Tas2r117, conc. 0,0003 mM
  Δ F/F: -0.002036
Mock, sheet Tas2r117, conc. 0,001 mM
  Δ F/F: -0.0005906
Mock, sheet Tas2r117, conc. 0,003 mM
  Δ F/F: -0.001196
conc. 0,01 mM, Mock (sheet TAS2R1)
  Δ F/F: -0.002604
conc. 0,1 mM, Mock (sheet TAS2R1)
  Δ F/F: -0.002131
conc. 0,03 mM, Mock (sheet TAS2R1)
  Δ F/F: -0.002188
conc. 0,3 mM, Mock (sheet TAS2R1)
  Δ F/F: -0.001094
conc. 0,001 mM, Mock (sheet TAS2R1)
  Δ F/F: -0.001978
conc. 0,003 mM, Mock (sheet TAS2R1)
  Δ F/F: -0.003067

From PMC10247784, “Physiological activation of human and mouse bitter taste receptors by bile acids” (Communications Biology, 2023)
